Source: the supplement of paper PMC10307832

Key:
Assay in all cases: relative viability (nuclei count vs DMSO), 5 days (fraction); higher = more cells survive
Tozasertib + Pemetrexed = compound: Cc1cc(Nc2cc(N3CCN(C)CC3)nc(Sc3ccc(NC(=O)C4CC4)cc3)n2)n[nH]1 [Tozasertib] + Nc1nc2[nH]cc(CCc3ccc(C(=O)N[C@@H](CCC(=O)O)C(=O)O)cc3)c2c(=O)[nH]1 [Pemetrexed] (partner 0.2 µM)
Outline: (§1)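 Five library-drug doses in √10 steps were combined with a fixed anchor-drug dose, or a single drug was given alone, by pin tool to lung cancer cell lines in 1536-well plates the day after seeding. Nuclei were stained and counted after 5 days. Relative viability is the nuclei count in treated wells over that in vehicle wells, taken as the median of duplicate plates.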

Tozasertib + Luminespib = compound: Cc1cc(Nc2cc(N3CCN(C)CC3)nc(Sc3ccc(NC(=O)C4CC4)cc3)n2)n[nH]1 [Tozasertib] + CCNC(=O)c1noc(-c2cc(C(C)C)c(O)cc2O)c1-c1ccc(CN2CCOCC2)cc1 [Luminespib] (partner 0.01 µM)
Outline: as §1

Tozasertib + AZD7762 = compound: Cc1cc(Nc2cc(N3CCN(C)CC3)nc(Sc3ccc(NC(=O)C4CC4)cc3)n2)n[nH]1 [Tozasertib] + NC(=O)Nc1cc(-c2cccc(F)c2)sc1C(=O)N[C@H]1CCCNC1 [AZD7762] (partner 0.2 µM)
Outline: as §1

Tozasertib + Alpelisib = compound: Cc1cc(Nc2cc(N3CCN(C)CC3)nc(Sc3ccc(NC(=O)C4CC4)cc3)n2)n[nH]1 [Tozasertib] + Cc1nc(NC(=O)N2CCC[C@H]2C(N)=O)sc1-c1ccnc(C(C)(C)C(F)(F)F)c1 [Alpelisib] (partner 2 µM)
Outline: as §1

Tozasertib + Decitabine = compound: Cc1cc(Nc2cc(N3CCN(C)CC3)nc(Sc3ccc(NC(=O)C4CC4)cc3)n2)n[nH]1 [Tozasertib] + Nc1ncn([C@H]2C[C@H](O)[C@@H](CO)O2)c(=O)n1 [Decitabine] (partner 2 µM)
Outline: as §1

Cell Line	relative viability (Tozasertib + Pemetrexed; first compound 0.004 µM)	relative viability (Tozasertib + Pemetrexed; first compound 0.01265 µM)	relative viability (Tozasertib + Pemetrexed; first compound 0.04 µM)	relative viability (Tozasertib + Pemetrexed; first compound 0.1265 µM)	relative viability (Tozasertib + Luminespib; first compound 0.004 µM)	relative viability (Tozasertib + Luminespib; first compound 0.01265 µM)	relative viability (Tozasertib + Luminespib; first compound 0.04 µM)	relative viability (Tozasertib + Luminespib; first compound 0.1265 µM)	relative viability (Tozasertib + AZD7762; first compound 0.004 µM)	relative viability (Tozasertib + AZD7762; first compound 0.01265 µM)	relative viability (Tozasertib + AZD7762; first compound 0.04 µM)	relative viability (Tozasertib + AZD7762; first compound 0.1265 µM)	relative viability (Tozasertib + Alpelisib; first compound 0.004 µM)	relative viability (Tozasertib + Alpelisib; first compound 0.01265 µM)	relative viability (Tozasertib + Alpelisib; first compound 0.04 µM)	relative viability (Tozasertib + Alpelisib; first compound 0.1265 µM)	relative viability (Tozasertib + Decitabine; first compound 0.004 µM)	relative viability (Tozasertib + Decitabine; first compound 0.01265 µM)	relative viability (Tozasertib + Decitabine; first compound 0.04 µM)	relative viability (Tozasertib + Decitabine; first compound 0.1265 µM)
HCC-827	0.254	0.239	0.293	0.262	0.281	0.854	0.714	0.766	0.16	0.204	0.23	0.2	1.03	0.931	1.06	0.954	0.207	0.283	0.305	0.264
HOP-62	0.396	0.299	0.32	0.362	0.953	0.876	0.912	0.976	0.505	0.485	0.613	0.289	1.05	0.887	0.937	0.937	0.213	0.234	0.194	0.196
LC-2-ad	0.291	0.252	0.265	0.275	1.09	0.95	0.821	0.544	0.868	0.763	0.915	0.731	0.881	0.82	1.02	0.354	0.87	0.792	0.798	–
LCLC-97TM1	0.191	0.157	0.15	0.18	0.895	–	0.724	0.615	0.166	0.194	0.164	0.211	–	0.247	0.32	0.207	0.222	0.232	0.235	0.185
LCLC-103H	0.482	0.46	0.444	0.45	0.935	1.05	1.08	0.72	0.724	0.842	0.846	0.732	0.817	0.895	0.952	0.994	0.689	0.621	0.775	0.683
LK-2	0.307	0.354	0.287	0.134	0.204	0.195	0.166	0.172	0.466	0.54	0.624	0.138	1.33	–	1.12	0.306	0.428	0.291	0.363	0.141
NCI-H520	0.743	0.789	0.633	0.413	0.193	0.219	0.219	0.233	–	–	–	–	0.945	0.844	0.889	0.864	0.533	0.449	0.467	0.296
NCI-H661	1.01	0.833	0.933	0.561	1.01	0.916	0.973	0.575	–	–	–	–	0.568	0.735	0.776	0.496	0.65	0.599	0.569	0.304
NCI-H727	–	–	–	–	0.254	0.351	0.515	0.343	0.446	0.481	0.716	0.455	0.739	0.554	0.639	0.482	0.942	–	0.803	0.645
NCI-H1563	0.816	0.845	0.823	0.615	0.48	0.635	0.484	0.48	–	–	–	–	0.944	0.794	0.94	0.874	–	–	–	–
NCI-H1650	0.334	0.374	0.381	0.385	0.199	0.2	0.223	0.197	–	–	–	–	–	–	–	–	0.351	0.364	0.404	0.307
NCI-H2009	1	1.03	0.985	0.986	1.03	0.972	1.06	1.07	–	–	–	–	1.18	1.17	1.15	1.14	0.401	0.352	0.416	0.359
NCI-H2023	0.239	0.241	0.246	0.213	0.811	0.749	0.9	0.598	–	–	–	–	0.645	0.541	0.539	0.628	0.223	0.237	0.217	0.169
NCI-H2228	0.319	0.32	0.376	0.322	0.216	0.167	0.204	0.167	–	–	–	–	0.806	–	0.556	0.434	–	–	–	–
NCI-H2342	0.809	0.778	0.744	0.759	0.646	–	0.697	0.767	0.578	0.532	0.514	0.398	–	–	–	–	0.678	0.738	0.723	0.766
SK-LU-1	1.05	0.961	1.09	0.964	0.242	0.211	0.197	0.191	–	–	–	–	1.27	1.02	1.19	0.561	0.653	0.678	–	0.649
SK-MES-1	0.907	0.892	1.02	0.769	0.921	0.731	0.82	0.82	–	–	–	–	0.967	0.746	0.894	0.535	0.319	0.376	0.434	0.316
SW 1573	0.793	0.796	0.848	0.212	0.25	0.239	0.139	0.228	–	–	–	–	0.751	0.674	0.615	0.702	0.351	0.463	0.544	0.176
UMC-11	0.852	0.809	0.78	0.26	1.02	0.983	–	0.422	–	–	–	–	1.08	0.968	1.13	0.146	0.597	0.499	0.548	0.189
